Assay results reported in the OPERA property sets (Mansouri et al. 2018).

logP	SMILES
-2.28	NC1(C(=O)O)CCCC1
-3.05	NCCC(=O)O
-2.89	O=C(O)C1CCCNC1 (stereo not drawn)
-2.54	CCC(N)C(=O)O (stereo not drawn)

More lines, now with the values behind:

SMILES	logP
CN(C)CC(=O)O	-2.91
O=C(O)C1CCN1 (stereo not drawn)	-2.84
NC1(C(=O)O)CC1	-2.78
O=C(O)CCN1CCCCC1	-2.45
O=C(O)C1CCCCN1 (stereo not drawn)	-2.31
NCCCCCCCC(=O)O	-2.55
NCCCCCCC(=O)O	-3.03
O=C(O)C1CCNCC1	-3.05
NC1(C(=O)O)CCCCC1	-1.87
